Patent US12370193B2, “Method of inhibiting TREM-1” (UNIVERSITY OF FLORIDA RESEARCH FOUNDATION, INCORPORATED, priority 2019, dated 2025)

Assays:
[1] = tested on: OP9 cells; assay: Adipogenesis and gene expression in MDI-differentiated OP9 cells; format: cell-based
Text: (§1) FIGS. 1A to 1E: Pan modulator with poly-pharmacology. […] FIG. 1D is a graph showing PPARγ target genes (aP2 and CD36) expression in OP9 cells with and without MDI (IBMX, dexamethasone, insulin) treatment. […] SR1903 is represented as orange sticks while PPARγ, RORγ, and LXRβ are depicted as blue ribbons respectively. Specific residues driving the interaction labelled and shown as sticks as well. […] FIG. 1F are graphs showing RORγ target genes (IL17A and IL17F) expression in EL4 cells.
FIG. 5A-5C: PPARγ and RORγ expression during adipogenesis of OP9 cells.
Cell lines: HEK293T cells and EL4 cells (American Type Culture Collection) were maintained in DMEM and RAW264.7 cells (American Type Culture Collection) were maintained in RPMI-1640 with 10% heat inactivated FBS and antibiotics (penicillin, streptomycin; Invitrogen). OP9 cells (American Type Culture collection) were maintained in Alpha minimum essential medium (MEM-alpha) with 20% heat inactivated FBS. Twenty-four hours post-confluence, the OP9 cells were differentiated with IBMX ([…]), dexamethasone (1 μM), Insulin (10 μg/mL) for 48 hrs.
Quantitative RT-PCR: Total RNA was extracted from EL4 or RAW264.7 cells using RNeasy Plus Micro Kit (Qiagen) and the RNA was reverse transcribed using the ABI reverse transcription kit (Applied Biosystems/Thermo Fisher Scientific, Waltham MA). Quantitative PCR was performed with a 7900HT Fast Real Time PCR System (Applied Biosystems) using SYBR green (Roche).

[2] = tested on: collagen-induced arthritis; assay: Collagen-induced arthritis (CIA) mouse model
Description: Clinical score was monitored every day after boosting during 18 days. […] The dosage of all compounds was identical in each group.
Briefly, DBA/1J mice were injected with chicken type II collagen on day 1 and then each animal received a boost injection of collagen on Day 21. Compound treatment, initiated on day 3-post boost injection, was administered intraperitoneally at 20 mg/kg twice-a-day for a total of 16 days. […] Mice: All mice were maintained in a specific pathogen-free environment in accordance with institutional protocol. […] Female DBA/1J mice were purchased from Taconic. CIA was induced in 8 weeks as previously described^40.

[3] = tested on: RORα; assay: Gal4-RORα co-transfection promoter-reporter assay; format: cell-based; details: Gal4 assay format
Description: (§2) Reporter gene assays: Twenty-four hours before transfection, HEK293T cells were plated in 96-well plates at a density of 15×10^3 cells per well. UAS:luciferase reporter and Ga14-RORa, Gal4-RORb, Gal4-RORγ, Gal4-LXRα, or Gal4 PPARγ DNA co-transfections were performed using X-tremeGENE 9 (Roche). Twenty-four hours after transfection, the cells were treated with vehicle or compound. Twenty-four hours after treatment, the luciferase activity was measured using the Dual-Glo luciferase assay system (Promega). Results were analyzed using GraphPad Prism software.

[4] = Pharmacokinetics in mice; format: in vivo; details: 20 mg/kg twice-a-day
Description: Compound was formulated in 10/10/80 DMSO/Tween80/Water and administered to mice at either 20 mg/kg by oral gavage or at 25 mg/kg via intraperitoneal injection. Blood was drawn at the indicated times and plasma was generated. Following solid phase extraction, drug levels were quantitated using LC-MSMS.

[5] = tested on: RORβ; assay: Gal4-RORβ co-transfection promoter-reporter assay; format: cell-based; details: Gal4 assay format
Description: as §2

[6] = biological target: T1, LXRα (Homo sapiens, UniProt Q13133); assay: Gal4-LXRα co-transfection promoter-reporter assay; format: cell-based; details: HEK293T cells, read-out: LXR agonist activity EC50
T1 sequence (Q13133 209-447 limits assumed): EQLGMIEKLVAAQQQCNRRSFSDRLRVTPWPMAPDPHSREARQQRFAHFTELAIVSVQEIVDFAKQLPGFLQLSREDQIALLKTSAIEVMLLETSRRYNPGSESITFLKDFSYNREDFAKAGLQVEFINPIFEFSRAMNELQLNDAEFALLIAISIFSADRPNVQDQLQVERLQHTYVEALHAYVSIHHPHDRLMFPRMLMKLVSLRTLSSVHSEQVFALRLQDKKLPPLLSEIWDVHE
Text: as §1, §2

[7] = Tolerability following chronic administration; format: in vivo
[8] = tested on: murine TREM1 promoter; assay: TREM1 promoter reporter (luciferase) assay; format: cell-based, Mus musculus
Description: Each LXRβ, PPARγ, and RORγ full length plasmid was co-transfected with TREM1/pGL3 using X-tremeGENE 9 into HEK293T cells. After 48 hrs, luciferase activity was measured using BriteLite plus assay system (PerkinElmer).

[9] = tested on: EL4 cells; assay: RORγ target gene expression in PMA/ionomycin stimulated EL4 cells; format: cell-based; details: PMA and ionomycin, compound at 10 μM
Text: FIG. 1D is a graph showing PPARγ target genes (aP2 and CD36) expression in OP9 cells with and without MDI (IBMX, dexamethasone, insulin) treatment. […] Specific residues driving the interaction labelled and shown as sticks as well. […] Quantitative RT-PCR: Total RNA was extracted from EL4 or RAW264.7 cells using RNeasy Plus Micro Kit (Qiagen) and the RNA was reverse transcribed using the ABI reverse transcription kit (Applied Biosystems/Thermo Fisher Scientific, Waltham MA). Quantitative PCR was performed with a 7900HT Fast Real Time PCR System (Applied Biosystems) using SYBR green (Roche).

[10] = tested on: diet-induced obesity; assay: Diet-induced obese (DIO) mouse model; format: in vivo, DIO mice
[11] = Food intake in lean mice and conditioned taste aversion; format: in vivo
[12] = OP9 cells, MDI plus 5 uM SR1903, compared to MDI treatment alone
[13] = 22-week-old DIO mice, 14 days, 20 mg/kg
[14] = DIO mice, 20 mg/kg i.p. for 14 days

For Cc1cc(CN2CCN(Cc3ccncc3)CC2)ccc1-c1ccc(C(O)(C(F)(F)F)C(F)(F)F)cc1 [SR1903, 1,1,1,3,3,3-hexafluoro-2-(2′-methyl-4′-((4-(pyridin-4-ylmethyl)piperazin-1-yl)methyl)-[1,1′-biphenyl]-4-yl)propan-2-ol], the “expression of PPARγ” value ([1]; OP9 adipogenesis) was “robustly repressed”, the “expression of RORγ” value ([1]; OP9 adipogenesis) was “no effect” and the lipid droplet formation ([1]; OP9 cells, MDI in combination with SR1903, 3 days) was “suppression of lipid droplet formation”. For the same compound, the “repression of PPARγ target gene CD36 expression” value [1, 12] was 87%, the “repression of PPARγ target gene aP2 (FABP4) expression” value [1, 12] was 99% and the “enlargement of the liver” value ([2]; CIA mice, 20 mg/kg) was “did not cause enlargement of the liver”. The “thymocyte differentiation and survival” value ([2]; CIA mice, compared to GW3965 or T0901317) was “enhanced thymocyte differentiation and survival”, the arthritis clinical score ([2]; Day 34, 20 mg/kg i.p. twice-a-day, vehicle 13.6±2.9) was 3.8±2.5 and the intrathymic cell number ([2]; treated mice, unlike SR2211 treated mice) was “enriched”. For the same compound, the “activity on RORα” value [3] was “lack activity”, the “plasma exposure relative to IC50” value [4] was “sufficient to have compound levels above its IC50” and the “activity on RORβ” value [5] was “lack activity”. The EC50 [6] was 689 nM, the tolerability [7] was “very well tolerated” and the “effect on TREM1 promoter activity” value ([8]; co-expression with PPARγ and LXRβ) was “little effect”. For the same compound, the “attenuation of TREM1 promoter activity” value ([8]; co-expression with RORγ) was ~50%, the IL17A expression [9] was “repressed” and the IL17F expression [9] was “repressed”. The “obesity related thymic involution” value [10, 13] was “protected from obesity related thymic involution”, the thymus weight [10, 13] was “increase in thymus weight” and the “Socs3 expression in the hypothalamus” value ([10]; DIO mice) was “repressed”. For the same compound, the “fasting and fed insulin levels” value ([10]; DIO mice) was “improved”, the fasting leptin levels ([10]; DIO mice) was “did not alter” and the food intake ([10]; DIO mice) was “reduced food intake”. For the same compound, the “leptin resistance (leptin sensitivity test)” value ([10]; DIO mice) was “reduced”, the “differentiation of αβTCR+CD4+ and αβTCR+CD8+ cells” value ([10]; DIO mice thymocytes) was “no effect” and the λδT cell differentiation ([10]; DIO mice thymocytes) was “increase”. For the same compound, the “HDL, TAG, and FFA” value [10, 14] was “no effect”, the fasting glucose levels [10, 14] was “improved” and the “glucose excursion in glucose tolerance test” value [10, 14] was “statistically significant improvement”. The “total cholesterol and LDL” value [10, 14] was “reduced”, the body weight reduction ([10]; DIO mice, 14 days of treatment) was ~15% and the “reduction of fat mass” value ([10]; DIO mice, 14 days, determined by NMR) was ~17%. The “leptin in freely feeding mice” value ([10]; DIO mice, compared to vehicle) was “statistically reduced”, the conditioned taste aversion ([11]; 20 mg/kg) was “no effect” and the food intake ([11]; lean mice) was “no effect on food intake”.
